From PMC11645656, “MRGPRX4 mediates phospho-drug associated pruritus in a humanized mouse model” (Science translational medicine, 2024)
Values joined by “and” are separate entries in the source; they are usually repeats but may differ in a detail not shown here. Identical values can stand only once. Like-named read-outs stand apart in the source and are kept apart here.

What was measured:
Type in all cases: cell-based
MRGPRX4 WT (S83) = MRGPRX4 WT (S83) (Homo sapiens, UniProt Q96LA9, L83S); assay: Calcium mobilization assay (FLIPR), WT (S83) MRGPRX4 transiently expressed in HEK293T cells; design: expressed in transfected cells; host or cells: HEK293T, transient; conditions: for EC50: WT (S83), Fig. 4E, unit not in the head, taken from Concentration (M) of the sheet and pEC50 [M] of Fig. 4E; for Calcium mobilization response (Fig. 4D dose-response) / calcium mobilization response (Fig. 3E and 3F dose-response): WT; for Calcium mobilization response (Fig. 4D dose-response): each cell one replicate; for Potency at S83- vs L83-MRGPRX4: calcium mobilization, compared with S83L (A17)
Description: (§1) Fig. 4. […] Hydrogen bond is shown as cyan dashed lines. […] Data are from three independent experiments, performed in triplicate. (E) pEC50 plots of various agonists toward S83- and L83-MRGPRX4 through calcium mobilization assay. […] Each data point represents an independent experiment, performed in triplicate. The extra sum-of-square F test was used to examine the difference in EC50 values. One-sided t-test was used for nateglinide. *p< 0.05, **p< 0.01 and ***p< 0.001. ns = no statistical significance. Both (D) and (E) are reported as the mean ± SEM. N.D.= no detectable response ≤ 100 μM.
(§2) HEK293 cells and MRGPRX4 stably expressed HEK293 cells were seeded in 100 μl culture media on 96-well plates at a density of 40,000 cells per well and incubated overnight. The next day, the media were replaced with a dye-loading solution from the FLIPR Calcium 5 assay kit (Molecular Devices), diluted in Hank's Balanced Salt Solution (HBSS) with 20 mM HEPES, pH 7.4. After 1 h of incubation at 37°C, cells were allowed to recover for 10 min in the dark at room temperature prior to performing intracellular calcium mobilization assay in a Flexstation-3 instrument with SoftMax®Pro 7.1 software (Molecular Devices). Serial concentrations of tested drugs were prepared in HBSS/HEPES solution at 3X concentration. […] Compounds were tested in triplicates and the signals were averaged. Responses were determined by subtracting the minimum signal (at the baseline before adding the drug) from the maximum signal (obtained after drug stimulation). Four-parameter logistic (4PL) curve fit was used to plot the dose-response curves. […] Both dose-response curve fitting and EC50s calculation are computed with GraphPad Prism software (version: 6.o or above).
(§3) To generate murine Mrgprs expressing cells, HEK293T cells (ATCC) were seeded on poly-D-lysine coated 96 well plate at 25,000 cells per well one day prior to transfection. HEK293T cells were transiently co-transfected with the mammalian expression plasmids carrying cDNA encoding the murine Mrgpr genes and plasmid inserted with cDNA encoding murine α-subunit of the heterotrimeric G15 protein (Gα15) in triplicates using Lipofectamine LTX reagents (Thermo Scientific). To generate WT, S83L, and alanine mutant MRGPRX4-expressing cells, HEK293T cells were seeded on poly-D-lysine coated 384 well plate at 12,000 cells per well one day prior to transfection. Mammalian expression plasmids pLX304 (vector from Addgene) carrying different MRGPRX4 coding sequences were transiently transfected into HEK293T cells in triplicates with Lipofectamine LTX reagents (Thermo Scientific). Intracellular calcium mobilization assays were performed after one day of transfection. Murine Mrgprs tested include Mrgpra1, Mrgpra2a, Mrgpra2b, Mrgpra3, Mrgpra4, Mrgpra6, Mrgpra9, Mrgpra10, Mrgpra11, Mrgpra12, Mrgpra14, Mrgprb5, Mrgprb6, Mrgprb10, Mrgprb11, and Mrgprc11. WT and mutant MRGPRX4 constructs tested include WT, S83L, R82A, R86A, R95A, W158A, Y250A, and Y254A.

mock [1] = assay: Calcium mobilization assay (FLIPR), mock-transfected control cells (Fig. 3E and 3F)
MRGPRX4 S83L (L83) = MRGPRX4 S83L (L83) (Homo sapiens, UniProt Q96LA9); assay: Calcium mobilization assay (FLIPR), S83L MRGPRX4 transiently expressed in HEK293T cells; design: expressed in transfected cells; host or cells: HEK293T, transient; conditions: for Calcium mobilization response (Fig. 4D dose-response): each cell one replicate; for EC50: Fig. 4E, unit not in the head, taken from Concentration (M) of the sheet and pEC50 [M] of Fig. 4E
Description: as §1, §2, §3

MRGPRX4 R82A = molecular target: T1, MRGPRX4 R82A (Homo sapiens, UniProt Q96LA9, L83S/R82A); assay: Calcium mobilization assay (FLIPR), MRGPRX4 R82A mutant
T1 construct: expressed in transfected cells; host or cells: HEK293T, transient
Description: Fig. 3. […] (A) Cryo-EM density map of MRGPRX4-Gq in complex with fospropofol. (B) The density map of fospropofol and R82 of MRGPRX4. (C and D) Key molecular interactions between fospropofol and the hydrophilic (C) and hydrophobic (D) part of the agonist binding pocket of MRGPRX4. Amino acid residues interacting with fospropofol are shown as sticks. Hydrogen bond is shown as cyan dashed lines. […] Data are from at least three independent experiments, each performed in triplicate, and reported as the mean ± SEM. (E) and (F) were collected from the same sets of experiments.
To generate murine Mrgprs expressing cells, HEK293T cells (ATCC) were seeded on poly-D-lysine coated 96 well plate at 25,000 cells per well one day prior to transfection. HEK293T cells were transiently co-transfected with the mammalian expression plasmids carrying cDNA encoding the murine Mrgpr genes and plasmid inserted with cDNA encoding murine α-subunit of the heterotrimeric G15 protein (Gα15) in triplicates using Lipofectamine LTX reagents (Thermo Scientific). To generate WT, S83L, and alanine mutant MRGPRX4-expressing cells, HEK293T cells were seeded on poly-D-lysine coated 384 well plate at 12,000 cells per well one day prior to transfection. […]

mock [2] = assay: Calcium mobilization assay (FLIPR), mock-transfected cells (Fig. 3E and 3F)
[3] = read-out: EC50s (each well represents individual experiment)
[4] = EC50s (each well represents individual experiment)

Chain of MRGPRX4 WT (S83) (Q96LA9 whole entry L83S): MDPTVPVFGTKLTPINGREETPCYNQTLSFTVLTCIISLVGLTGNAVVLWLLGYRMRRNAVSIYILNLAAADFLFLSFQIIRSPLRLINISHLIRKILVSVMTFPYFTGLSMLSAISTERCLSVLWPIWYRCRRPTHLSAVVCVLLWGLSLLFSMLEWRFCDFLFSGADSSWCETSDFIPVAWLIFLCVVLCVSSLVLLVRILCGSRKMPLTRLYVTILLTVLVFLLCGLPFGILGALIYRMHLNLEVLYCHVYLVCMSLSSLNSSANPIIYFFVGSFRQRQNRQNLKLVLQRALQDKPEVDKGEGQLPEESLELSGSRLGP
Chain of MRGPRX4 S83L (L83) (Q96LA9 whole entry, stated change not applied): as the sequence (Q96LA9 whole entry L83S) above, with S83L counted along it
T1 sequence (Q96LA9 whole entry R82A/L83S): as the sequence (Q96LA9 whole entry L83S) above, with R82A counted along it

SMILES: O=C1NC(c2ccccc2)(c2ccccc2)C(=O)N1COP(=O)(O)O [Fosphenytoin]
- EC50 (MRGPRX4 WT (S83); [3]): 7.21e-07 M and 5.46e-06 M and 1.46e-06 M
- Calcium mobilization response (Fig. 4D dose-response) (MRGPRX4 WT (S83); 5.65e-9 M): -11.5543
- calcium mobilization response (Fig. 3E and 3F dose-response) (MRGPRX4 WT (S83); 4.12e-6 M): 76.9188
- Calcium mobilization response (Fig. 4D dose-response) (MRGPRX4 WT (S83); 4.12e-6 M): 76.9188
- calcium mobilization response (Fig. 3E and 3F dose-response) (MRGPRX4 WT (S83); 1.23e-5 M): 82.4819
- Potency at S83- vs L83-MRGPRX4 (MRGPRX4 WT (S83)): improved potency at S83-MRGPRX4
- Calcium mobilization response, dose-response replicate data (Fig. 3E and 3F) (mock [1]; concentration 188 pM): 2.751 and 6.052 and -2.532
- Calcium mobilization response, dose-response replicate data (Fig. 3E and 3F) (mock [1]; concentration 565 pM): 4.071 and -5.503 and 12.3245
- Calcium mobilization response, dose-response replicate data (Fig. 3E and 3F) (mock [1]; concentration 1.69e-9 M): 4.071 and 3.081 and -1.212
- Calcium mobilization response, dose-response replicate data (Fig. 3E and 3F) (mock [1]; concentration 5.08e-9 M): 3.411 and -2.202
- Calcium mobilization response, dose-response replicate data (Fig. 3E and 3F) (mock [1]; concentration 1.52e-8 M): -1.542 and -1.212 and -3.853
- Calcium mobilization response, dose-response replicate data (Fig. 3E and 3F) (mock [1]; concentration 4.57e-8 M): -2.532 and -6.494 and 5.722
- Calcium mobilization response, dose-response replicate data (Fig. 3E and 3F) (mock [1]; concentration 1.37e-7 M): -8.474 and 2.091 and 3.411
- Calcium mobilization response, dose-response replicate data (Fig. 3E and 3F) (mock [1]; concentration 4.12e-7 M): -2.202 and -3.522 and -0.2212
- Calcium mobilization response, dose-response replicate data (Fig. 3E and 3F) (mock [1]; concentration 1.23e-6 M): -8.474 and -1.212 and -3.1923
- Calcium mobilization response, dose-response replicate data (Fig. 3E and 3F) (mock [1]; concentration 3.7e-6 M): -6.824 and 3.081 and 0.4401
- Calcium mobilization response, dose-response replicate data (Fig. 3E and 3F) (mock [1]; concentration 1.11e-5 M): -13.7563 and -1.212 and 1.1003
- Calcium mobilization response, dose-response replicate data (Fig. 3E and 3F) (mock [1]; concentration 3.33e-5 M): -14.4165 and -16.3972 and -5.173
- Calcium mobilization response, dose-response replicate data (Fig. 3E and 3F) (mock [1]; concentration 0.0001 M): -29.6022 and -24.6503 and -24.9805
- Calcium mobilization response (Fig. 4D dose-response) (MRGPRX4 S83L (L83); 5.08e-8 M): 12.9092
- Calcium mobilization response (Fig. 4D dose-response) (MRGPRX4 S83L (L83); 1.52e-7 M): 15.1222
- Calcium mobilization response (Fig. 4D dose-response) (MRGPRX4 S83L (L83); 4.57e-7 M): 12.9092
- EC50 (MRGPRX4 S83L (L83); [3]): 1.09e-05 M and 5.99e-05 M and 1.97e-05 M
- Calcium mobilization response at alanine mutant R82A vs WT (MRGPRX4 R82A): either greatly attenuated or abolished

SMILES: CC(C)c1cccc(C(C)C)c1OCOP(=O)(O)O [Fospropofol]
- EC50 (MRGPRX4 WT (S83); [4]): 2.8e-08 M and 4.03e-08 M and 1.9e-08 M
- calcium mobilization response (Fig. 3E and 3F dose-response) (MRGPRX4 WT (S83); 4.57e-8 M): 59.0909
- calcium mobilization response (Fig. 3E and 3F dose-response) (MRGPRX4 WT (S83); 4.12e-7 M): 88.6023
- Calcium mobilization response (Fig. 4D dose-response) (MRGPRX4 WT (S83); 4.12e-7 M): 88.6023
- Potency at S83- vs L83-MRGPRX4 (MRGPRX4 WT (S83)): improved potency at S83-MRGPRX4
- Calcium mobilization response (Fig. 4D dose-response) (MRGPRX4 S83L (L83); 1.52e-8 M): 30.9484
- Calcium mobilization response (Fig. 4D dose-response) (MRGPRX4 S83L (L83); 0.0001 M): 92.0965
- EC50 (MRGPRX4 S83L (L83); [4]): 1.79e-07 M and 1.3e-07 M and 1.88e-07 M
- calcium mobilization response (Fig. 3E and 3F dose-response) (mock [2]; 5.08e-9 M): 10.7608 and 18.8313 and 12.7088
- calcium mobilization response (Fig. 3E and 3F dose-response) (mock [2]; 1.37e-7 M): 17.7181 and 25.7886 and 28.015
- calcium mobilization response (Fig. 3E and 3F dose-response) (mock [2]; 4.12e-7 M): 16.3266 and 13.822 and 21.6142
- calcium mobilization response (Fig. 3E and 3F dose-response) (mock [2]; 1.23e-6 M): 32.4677 and 38.8684 and 39.425
- calcium mobilization response (Fig. 3E and 3F dose-response) (mock [2]; 3.7e-6 M): 22.4491 and 40.2599 and 25.232
- calcium mobilization response (Fig. 3E and 3F dose-response) (mock [2]; 1.11e-5 M): 30.7979 and 29.963 and 39.7033
- calcium mobilization response (Fig. 3E and 3F dose-response) (mock [2]; 3.33e-5 M): 34.1374 and 32.1894 and 41.0947
- calcium mobilization response (Fig. 3E and 3F dose-response) (mock [2]; 0.0001 M): 28.2933 and 31.0762 and 40.2599
- Calcium mobilization response at alanine mutant R82A vs WT (MRGPRX4 R82A): either greatly attenuated or abolished
